Measured values from article PMC9103705, “Effects of Drugs Formerly Proposed for COVID-19 Treatment on Connexin43 Hemichannels” (International Journal of Molecular Sciences, 2022).

Tests used:
[1] = tested on: Cx43 mRNA expression; test: RT-qPCR analysis of Cx43 mRNA expression; assay type: cell-based, human; conditions: DUBCA-hCx43 cells, 24 h; for Cx43 mRNA expression: CC10, CC10/2 and CC10/10 (all tested concentrations)
[2] = tested on: DUBCA-hCx43 cells; test: MTT cell viability assay for CC10 determination, 24 h drug exposure; conditions: 24 h exposure; for CC10 (concentration inducing 10% cell death): extrapolated from concentration-response curves
[3] = target: T1, Cx43 hemichannels (Homo sapiens, UniProt P17302); test: Cx43 hemichannel activity assay (extracellular ATP release, bioluminescence); assay type: cell-based; conditions: HEK-hCx43 cells; for extracellular ATP release (Cx43 hemichannel activity) compared to DF control: 30 min exposure in DF buffer; for extracellular ATP release at highest applied concentration: lopinavir 190 µM, remdesivir 500 µM (CC10 x10); for extracellular ATP levels at lower concentrations: CC10/2: 8.5 µM azithromycin, 7 µM chloroquine, 6.25 µM hydroxychloroquine
T1 construct: expressed in transfected cells; host or cells: HEK293 (HEK-hCx43, transduced)
T1 sequence (P17302 whole entry): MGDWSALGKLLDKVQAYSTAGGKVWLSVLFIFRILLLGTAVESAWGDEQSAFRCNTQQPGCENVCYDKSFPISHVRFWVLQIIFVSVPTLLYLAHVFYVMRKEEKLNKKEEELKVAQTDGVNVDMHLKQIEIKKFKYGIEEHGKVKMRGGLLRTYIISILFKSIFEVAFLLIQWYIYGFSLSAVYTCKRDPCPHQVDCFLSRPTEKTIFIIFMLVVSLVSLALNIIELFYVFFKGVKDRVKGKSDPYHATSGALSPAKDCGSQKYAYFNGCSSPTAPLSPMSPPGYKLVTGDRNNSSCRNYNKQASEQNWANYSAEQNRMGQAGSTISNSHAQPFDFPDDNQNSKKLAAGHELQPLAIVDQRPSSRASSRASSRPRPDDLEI

[4] = retrieved from the literature; cited from earlier work
[5] = tested on: Cx43 protein expression; conditions: cited from earlier work
[6] = tested on: gap junctional communication; conditions: cited from earlier work

Row | Compound | Cx43 mRNA expression [1] | CC10 (concentration inducing 10% cell death) [2] [µM] | extracellular ATP release (Cx43 hemichannel activity) compared to DF control [3] | Cmax (total peak plasma concentration at therapeutic dose) [4] | extracellular ATP release at highest applied concentration ([3]; 30 min) | extracellular ATP levels at lower concentrations ([3]; 30 min) | Cx43 protein expression in cardiomyocytes [5] | cytotoxic effect on the cells [2] | gap junctional communication [6] | concentration dependence of ATP release ([3]; 30 min, stepwise increase in ATP at lower concentrations) | Cx43 mRNA expression at 5 µM ([1]; effect only seen at 5 µM)
1 | CC(C)c1nc(CN(C)C(=O)N[C@H](C(=O)N[C@@H](Cc2ccccc2)C[C@H](O)[C@H](Cc2ccccc2)NC(=O)OCc2cncs2)C(C)C)cs1 [Ritonavir] | no effects | 16 | not significantly different from the DF control | 1.17 [31] µM |  |  |  |  |  |  | 
2 | Cc1cccc(C)c1OCC(=O)N[C@@H](Cc1ccccc1)[C@@H](O)C[C@H](Cc1ccccc1)NC(=O)[C@H](C(C)C)N1CCCNC1=O [Lopinavir] | no effects | 19 |  |  | released a significantly higher amount of ATP |  |  |  |  |  | 
3 | CCN(CCO)CCCC(C)Nc1ccnc2cc(Cl)ccc12 (stereo not drawn) [Hydroxychloroquine (sulphate), Hydroxychloroquine] | no effects | 12.5 |  |  |  | increase extracellular ATP levels | induced an elevation of Cx43 protein expression |  |  |  | 
4 | NC(=O)c1nc(F)c[nH]c1=O [Favipiravir] | no effects | >400 | not significantly different from the DF control | 53.4 [26] µM |  |  |  | did not show any cytotoxic effect |  |  | 
5 | CCN(CC)CCCC(C)Nc1ccnc2cc(Cl)ccc12 (stereo not drawn) [Chloroquine (diphosphate), Chloroquine] | no effects |  |  | 0.81 [24] µM |  | increase extracellular ATP levels |  |  | did not had any effects |  | 
6 | C[C@@H]1C[C@H]2[C@@H]3CCC4=CC(=O)C=C[C@]4(C)[C@@]3(F)[C@@H](O)C[C@]2(C)[C@@]1(O)C(=O)CO [Dexamethasone] | no effects | >200 | not significantly different from the DF control | 0.63 [25] µM |  |  |  | did not show any cytotoxic effect | reduce gap junctional communication | might have a concentration-dependent effect on ATP release | 
7 | NC(=O)c1ncn([C@@H]2O[C@H](CO)[C@@H](O)[C@H]2O)n1 [Ribavirin] | no effects | 10 | not significantly different from the DF control |  |  |  |  |  |  |  | 
8 | CC[C@H]1OC(=O)[C@H](C)[C@@H](O[C@H]2C[C@@](C)(OC)[C@@H](O)[C@H](C)O2)[C@H](C)[C@@H](O[C@@H]2O[C@H](C)C[C@H](N(C)C)[C@H]2O)[C@](C)(O)C[C@@H](C)CN(C)[C@H](C)[C@@H](O)[C@]1(C)O [Azithromycin (dihydrate), Azithromycin] | no effects | 17 |  | 0.52 [23] µM |  | increase extracellular ATP levels |  |  |  |  | 
9 | CC1(C)[C@@H](OC(=O)CCC(=O)O)CC[C@]2(C)[C@H]3C(=O)C=C4[C@@H]5C[C@@](C)(C(=O)O)CC[C@]5(C)CC[C@@]4(C)[C@]3(C)CC[C@@H]12 [Cbx, carbenoxolone] |  |  | lower ATP levels |  |  |  |  |  |  |  | 
10 | CCC(CC)COC(=O)[C@H](C)N[P@](=O)(OC[C@H]1O[C@@](C#N)(c2ccc3c(N)ncnn23)[C@H](O)[C@@H]1O)Oc1ccccc1 [Remdesivir] |  | 50 |  | 9.03 [29] µM | released a significantly higher amount of ATP |  |  |  |  |  | decrease in Cx43 mRNA expression
